Results from patent publication US20090018134A1, “Compounds - 945” (AstraZeneca AB, priority 2007, published 2009).
Like-named read-outs stand apart in the source and are kept apart here.

Biological target: T1, mTOR (Homo sapiens, UniProt P42345)
T1 construct: FLAG; made in house
Experiment: In Vitro mTOR Kinase Assay (Echo), Test (a)(ii)
Assay type: biochemical
In short: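 Inhibition expressed as IC50 from an AlphaScreen read-out: phospho-T389 p70 S6K antibody plus streptavidin donor/protein A acceptor beads, left overnight in the dark. The kinase reaction ran 2 h at room temperature, then was stopped with EDTA. Enzyme: FLAG-purified mTOR 1362-2549 fragment from stable HEK293 cells.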

[1] = table of enzyme assay Test (a)(ii), read-out: Test (a)(ii) IC50
[2] = read-out: mTOR Kinase Assay (Echo)

T1 sequence (P42345 1362-2549): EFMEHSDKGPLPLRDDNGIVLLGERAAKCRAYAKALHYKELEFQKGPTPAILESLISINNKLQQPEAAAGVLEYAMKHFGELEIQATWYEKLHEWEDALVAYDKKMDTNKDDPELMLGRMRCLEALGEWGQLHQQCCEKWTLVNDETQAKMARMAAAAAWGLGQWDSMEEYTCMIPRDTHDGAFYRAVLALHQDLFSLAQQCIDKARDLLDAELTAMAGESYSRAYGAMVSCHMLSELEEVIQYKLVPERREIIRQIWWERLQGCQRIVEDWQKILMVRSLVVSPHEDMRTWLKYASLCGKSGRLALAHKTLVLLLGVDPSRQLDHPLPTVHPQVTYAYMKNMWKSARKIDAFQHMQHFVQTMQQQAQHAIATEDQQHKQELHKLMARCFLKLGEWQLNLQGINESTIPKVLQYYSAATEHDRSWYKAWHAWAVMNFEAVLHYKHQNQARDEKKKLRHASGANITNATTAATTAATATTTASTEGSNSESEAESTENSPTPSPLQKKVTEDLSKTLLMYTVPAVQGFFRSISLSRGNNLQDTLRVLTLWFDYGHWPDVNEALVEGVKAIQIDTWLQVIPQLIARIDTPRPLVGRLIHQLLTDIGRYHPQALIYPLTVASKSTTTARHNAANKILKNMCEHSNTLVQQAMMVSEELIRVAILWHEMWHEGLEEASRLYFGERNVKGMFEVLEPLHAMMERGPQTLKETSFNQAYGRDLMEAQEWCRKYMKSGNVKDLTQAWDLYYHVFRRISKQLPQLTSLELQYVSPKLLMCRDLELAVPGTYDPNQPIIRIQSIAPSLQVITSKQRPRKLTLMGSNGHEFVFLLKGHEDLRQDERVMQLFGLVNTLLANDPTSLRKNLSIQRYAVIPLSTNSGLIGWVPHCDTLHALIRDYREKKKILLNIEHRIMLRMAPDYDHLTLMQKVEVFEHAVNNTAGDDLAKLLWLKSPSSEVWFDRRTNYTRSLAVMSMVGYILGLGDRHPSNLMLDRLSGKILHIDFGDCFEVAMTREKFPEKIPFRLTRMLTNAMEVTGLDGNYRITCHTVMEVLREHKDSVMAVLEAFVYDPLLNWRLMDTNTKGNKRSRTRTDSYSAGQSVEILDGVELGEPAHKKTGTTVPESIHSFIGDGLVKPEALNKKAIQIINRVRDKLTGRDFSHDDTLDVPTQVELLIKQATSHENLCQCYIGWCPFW

C[C@H]1COCCN1c1cc(C2(S(=O)(=O)CCCO)CCC2)nc(-c2ccc(NC(=O)NCCCO)cc2)n1 [Example 43l, 3-(3-hydroxypropyl)-1-[4-[4-[1-(3-hydroxypropylsulfonyl)cyclobu-tyl]-6-[(3S)-3-methylmorpholin-4-yl]pyrimidin-2-yl]phenyl]urea]
IC50 [1]: 23.6 nM

C[C@H]1COCCN1c1cc(C2(S(C)(=O)=O)CCNCC2)nc(-c2ccc(NC(=O)NC3CC3)cc2)n1 [Example 20, 3-Cyclopropyl-1-[4-[4-[(3S)-3-methylmorpholin-4-yl]-6-(4-methylsulfonylpiperidin-4-yl)pyrimidin-2-yl]phenyl]urea]
IC50 [1]: 12.8 nM

Cc1nc(C)c(S(=O)(=O)C2(c3cc(N4CCOC[C@@H]4C)nc(-c4ccc(NC(=O)NCCF)cc4)n3)CC2)s1 [Example 78e, 1-[4-[4-[1-[(2,4-dimethyl-1,3-thiazol-5-yl)sulfonyl]cyclopropyl]-6-[(3S)-3-methylmorpholin-4-yl]pyrimidin-2-yl]phenyl]-3-(2-fluoroethyl)urea]
IC50 [1]: 23.9 nM

C[C@H]1COCCN1c1cc(C2(S(=O)(=O)C3CC3)CC2)nc(-c2ccc(NC(=O)NCCN3CCCC3)cc2)n1 [Example 3p, 1-[4-[4-(1-cyclopropylsulfonylcyclopropyl)-6-[(3S)-3-methylmorpholin-4-yl]pyrimidin-2-yl]phenyl]-3-(2-pyrrolidin-1-ylethyl)urea]
IC50 [2]: 193 nM

C[C@H]1COCCN1c1cc(C2(S(=O)(=O)C3CC3)CC2)nc(-c2ccc(NC(=O)NCCCO)cc2)n1 [Example 3l, 1-[4-[4-(1-cyclopropylsulfonylcyclopropyl)-6-[(3S)-3-methylmorpholin-4-yl]pyrimidin-2-yl]phenyl]-3-(3-hydroxypropyl)urea]
IC50 [2]: 2.57 nM

CCS(=O)(=O)C1(c2cc(N3CCOC[C@@H]3C)nc(-c3ccc(NC(=O)NC4CCC4)cc3)n2)CC1 [Example 11d, 3-cyclobutyl-1-[4-[4-(1-ethylsulfonylcyclopropyl)-6-[(3S)-3-methylmorpholin-4-yl]pyrimidin-2-yl]phenyl]urea]
IC50 [2]: 6.42 nM

CCNC(=O)Nc1ccc(-c2nc(N3CCOC[C@@H]3C)cc(C3(S(=O)(=O)C4CC4)CC3)n2)cc1 [Example 3e, 3-[4-[4-(1-cyclopropylsulfonylcyclopropyl)-6-[(3S)-3-methylmorpholin-4-yl]pyrimidin-2-yl]phenyl]-1-ethyl-urea]
IC50 [2]: 1.66 nM

C[C@H]1COCCN1c1cc(C2(S(=O)(=O)c3ccc(OC(F)F)cc3)CC2)nc(-c2ccc(NC(=O)Nc3cnn(C)c3)cc2)n1 [Example 64d, 1-[4-[4-[1-[4-(difluoromethoxy)phenyl]sulfonyl-cyclopropyl]-6-[(3S)-3-methylmorpholin-4-yl]pyrimidin-2-yl]phenyl]-3-(1-methylpyrazol-4-yl)urea]
IC50 [1]: 6.7 nM

C[C@H]1COCCN1c1cc(C2(S(C)(=O)=O)CC2)nc(-c2ccc(NC(=O)NCCN(C)C)cc2)n1 [Example 2e, 3-(2-dimethylaminoethyl)-1-[4-[4-[(3S)-3-methylmorpholin-4-yl]-6-(1-methylsulfonylcyclopropyl)pyrimidin-2-yl]phenyl]urea]
IC50 [2]: 279 nM

CCNC(=O)Nc1ccc(-c2nc(N3CCOC[C@@H]3C)cc(C3(S(=O)(=O)c4c(C)nn(C(F)F)c4C)CC3)n2)cc1 [Example 75b, 3-[4-[4-[1-[1-(difluoromethyl)-3,5-dimethylpyrazol-4-yl]sulfonylcyclopropyl]-6-[(3S)-3-methylmorpholin-4-yl]pyrimidin-2-yl]phenyl]-1-ethylurea]
IC50 [1]: 38.1 nM

CCNC(=O)Nc1ccc(-c2nc(N3CCOC[C@@H]3CC)cc(C3(S(C)(=O)=O)CC3)n2)cc1 [Example 84e, 3-ethyl-1-[4-[4-[(3S)-3-ethylmorpholin-4-yl]-6-(1-methylsulfonylcyclopropyl)pyrimidin-2-yl]phenyl]urea]
IC50 [1]: 8.18 nM

N#CCCNC(=O)Nc1ccc(-c2nc(N3CCOCC3)cc(C3(S(=O)(=O)c4ccncc4)CC3)n2)cc1 [Example 36aw, 3-(2-cyanoethyl)-1-[4-[4-morpholin-4-yl-6-(1-pyridin-4-ylsulfonylcyclopropyl)pyrimidin-2-yl]phenyl]urea]
IC50 [1]: 16.4 nM

CNC(=O)Nc1ccc(-c2nc(N3CCOC[C@@H]3C)cc(C3(S(=O)(=O)C4CCCC4)CC3)n2)cc1 [Example 9i]
IC50 [2]: 2.4 nM

CCNC(=O)Nc1ccc(-c2nc(N3CCOCC3C(=O)N(C)C)cc(C3(S(=O)(=O)c4ccccc4)CC3)n2)cc1 (stereo not drawn) [Example 90, 4-[6-[1-(Benzenesulfonyl)cyclopropyl]-2-[4-(ethylcarbamoylamino)phenyl]pyrimidin-4-yl]-N,N-dimethylmorpholine-3-carboxamide]
IC50 [1]: 18.9 nM

CNC(=O)Nc1ccc(-c2nc(N3CCOC[C@@H]3C)cc(C3(S(=O)(=O)c4cn(C)nc4C)CC3)n2)cc1 [Example 55, 1-[4-[4-[1-(1,3-Dimethylpyrazol-4-yl)sulfonylcyclopropyl]-6-[(3S)-3-methylmorpholin-4-yl]pyrimidin-2-yl]phenyl]-3-methylurea]
IC50 [1]: 2.96 nM

C[C@H]1COCCN1c1cc(C2(S(C)(=O)=O)CC2)nc(-c2ccc(NC(=O)NC(C)(C)CO)cc2)n1 [Example 2f, 3-(1-hydroxy-2-methyl-propan-2-yl)-1-[4-[4-[(3S)-3-methylmorpholin-4-yl]-6-(1-methylsulfonylcyclopropyl)pyrimidin-2-yl]phenyl]urea]
IC50 [2]: 4.33 nM

C[C@H]1COCCN1c1cc(C2(S(C)(=O)=O)CCOCC2)nc(-c2ccc(NC(=O)NCCN(C)C)cc2)n1 [Example 23b, 3-(2-dimethylaminoethyl)-1-[4-[4-[(3S)-3-methylmorpholin-4-yl]-6-(4-methylsulfonyloxan-4-yl)pyrimidin-2-yl]phenyl]urea]
IC50 [1]: 197 nM

C[C@H]1COCCN1c1cc(C2(S(=O)(=O)c3ccccc3)CC2)nc(-c2ccc(NC(=S)NC(C)(C)CO)cc2)n1 [Example 37ag, 1-[4-[4-[1-(benzenesulfonyl)cyclopropyl]-6-[(3S)-3-methylmorpholin-4-yl]pyrimidin-2-yl]phenyl]-3-(1-hydroxy-2-methylpropan-2-yl)thiourea]
IC50 [1]: 13.4 nM

C[C@H]1COCCN1c1cc(C2(S(=O)(=O)c3ccc(F)cc3)CC2)nc(-c2ccc(NC(=O)NCCO)nc2)n1 [Example 14l, 1-[5-[4-[1-(4-fluorophenyl)sulfonylcyclopro-pyl]-6-[(3S)-3-methylmorpholin-4-yl]pyrimidin-2-yl]pyridin-2-yl]-3-(2-hydroxyethyl)urea]
IC50 [1]: 13.7 nM

C[C@H]1COCCN1c1cc(C2(S(=O)(=O)C(C)(C)C)CC2)nc(-c2ccc(NC(=O)Nc3ccc(C(F)(F)F)cc3)cc2)n1 [Example 18j, 1-[4-[4-(1-tert-butylsulfonylcyclopropyl)-6-[(3S)-3-methylmorpholin-4-yl]pyrimidin-2-yl]phenyl]-3-[4-(trifluoromethyl)phenyl]urea]
IC50 [1]: 30.3 nM

CC(C)S(=O)(=O)C1(c2cc(N3CCOC[C@@H]3C)nc(-c3ccc(NC(=O)NCCN(C)C)cc3)n2)CC1 [Example 7g, 3-(2-dimethylaminoethyl)-1-[4-[4-[(3S)-3-methylmorpholin-4-yl]-6-(1-propan-2-ylsulfonylcyclopropyl)pyrimidin-2-yl]phenyl]urea]
IC50 [2]: 211 nM

CNC(=O)Nc1ccc(-c2nc(N3CCOC[C@@H]3C)cc(C3(S(=O)(=O)CCO)CC3)n2)cc1 [Example 16, 1-[4-[4-[1-(2-Hydroxyethylsulfonyl)cyclopropyl]-6-[(3S)-3-methylmorpholin-4-yl]pyrimidin-2-yl]phenyl]-3-methylurea]
IC50 [1]: 1.42 nM

C[C@H]1COCCN1c1cc(C2(S(=O)(=O)c3c(F)cccc3F)CC2)nc(-c2ccc(NC(=O)Nc3cnn(C)c3)cc2)n1 [Example 86f, 1-[4-[4-[1-(2,6-difluorophenyl)sulfonylcyclopropyl]-6-[(3S)-3-methylmorpholin-4-yl]pyrimidin-2-yl]phenyl]-3-(1-methylpyrazol-4-yl)urea]
IC50 [1]: 3.45 nM

C[C@H]1COCCN1c1cc(C2(S(=O)(=O)CCCO)CCC2)nc(-c2ccc(NC(=O)NC(C)(C)CO)cc2)n1 [Example 43p, 3-(1-hydroxy-2-methylpropan-2-yl)-1-[4-[4-[1-(3-hydroxypropylsulfonyl)cyclobu-tyl]-6-[(3S)-3-methylmorpholin-4-yl]pyrimidin-2-yl]phenyl]urea]
IC50 [1]: 55.5 nM

C[C@H]1COCCN1c1cc(C2(S(C)(=O)=O)CC2)nc(-c2ccc(NC(=O)NCCC#N)cc2)n1 [Example 2x, 3-(2-cyanoethyl)-1-[4-[4-[(3S)-3-methylmorpholin-4-yl]-6-(1-methylsulfonylcyclopropyl)pyrimidin-2-yl]phenyl]urea]
IC50 [2]: 1.64 nM

C[C@H]1COCCN1c1cc(C2(S(=O)(=O)C3CCCCC3)CC2)nc(-c2ccc(NC(=O)NC(C)(C)CO)cc2)n1 [Example 26f, 1-[4-[4-(1-cyclohexylsulfonylcyclopropyl)-6-[(3S)-3-methylmorpholin-4-yl]pyrimidin-2-yl]phenyl]-3-(1-hydroxy-2-methylpropan-2-yl)urea]
IC50 [1]: 4.57 nM

C[C@H]1COCCN1c1cc(C2(S(=O)(=O)CCCO)CC2)nc(-c2ccc(NC(=O)N(C)C3CC3)cc2)n1 [Example 36ck, 1-cyclopropyl-3-[4-[4-[1-(3-hydroxypropylsulfonyl)cyclopropyl]-6-[(3S)-3-methylmorpholin-4-yl]pyrimidin-2-yl]phenyl]-1-methylurea]
IC50 [1]: 2620 nM

CCCNC(=O)Nc1ccc(-c2nc(N3CCOC[C@@H]3C)cc(C3(S(=O)(=O)C4CCCC4)CC3)n2)cc1 [Example 9h]
IC50 [2]: 5.7 nM

Cc1ccc(S(=O)(=O)C2(c3cc(N4CCOC[C@@H]4C)nc(-c4ccc(NC(=O)Nc5cnn(C)c5)cc4)n3)CC2)cc1 [Example 95r, 1-[4-[4-[(3S)-3-methylmorpholin-4-yl]-6-[1-(4-methylphenyl)sulfonylcyclopropyl]pyrimidin-2-yl]phenyl]-3-(1-methylpyrazol-4-yl)urea]
IC50 [1]: 6.31 nM

CNC(=O)Nc1ccc(-c2nc(N3CCOC[C@@H]3C)cc(C3(S(=O)(=O)CCCO)CCOCC3)n2)cc1 [Example 36ca, 1-[4-[4-[4-(3-hydroxypropylsulfonyl)oxan-4-yl]-6-[(3S)-3-methylmorpholin-4-yl]pyrimidin-2-yl]phenyl]-3-methylurea]
IC50 [1]: 310 nM
